Test results from the NIST ThermoML archive (doi:10.1021/acs.jced.8b01135).

Assay: xn = mol fraction of the nth substance listed
Details: 102 kPa, Liquid; for speed of sound: Frequency=3 MHz, Single path-length method; for mass density: Vibrating tube method; for viscosity: Concentric cylinders viscometry

CCCCCCCCCCC1CCCCC1 [decylcyclohexane] + CCCCCCCCCCCC
Details	mass density [kg/m3]	speed of sound [m/s]	viscosity [mPa·s]
288.15 K, x1 = 0.1003	760.76	1329.7	–
288.15 K, x1 = 0.2194	770.26	1344	–
288.15 K, x1 = 0.3002	776.43	1353.5	–
288.15 K, x1 = 0.4004	783.8	1364.7	–
288.15 K, x1 = 0.4999	790.8	1375.6	–
288.15 K, x1 = 0.5993	797.51	1386.2	–
288.15 K, x1 = 0.7001	804.03	1396.3	–
288.15 K, x1 = 0.8005	810.28	1406.3	–
288.15 K, x1 = 0.8991	816.18	1415.8	–
288.15 K, x1 = 1	821.93	1425.2	–
293.15 K, x1 = 0.1003	757.16	1310.3	1.7
293.15 K, x1 = 0.2194	766.69	1324.7	1.98
293.15 K, x1 = 0.3002	772.89	1334.2	2.19
293.15 K, x1 = 0.4004	780.28	1345.7	2.48
293.15 K, x1 = 0.4999	787.31	1356.6	2.82
293.15 K, x1 = 0.5993	794.05	1367.1	3.2
293.15 K, x1 = 0.7001	800.58	1377.5	3.64
293.15 K, x1 = 0.8005	806.85	1387.5	4.13
293.15 K, x1 = 0.8991	812.78	1397.1	4.68
293.15 K, x1 = 1	818.54	1406.4	5.34
298.15 K, x1 = 0.1003	753.56	1290.9	–
298.15 K, x1 = 0.2194	763.13	1305.4	–
298.15 K, x1 = 0.3002	769.34	1315	–
298.15 K, x1 = 0.4004	776.76	1326.8	–
298.15 K, x1 = 0.4999	783.81	1337.8	–
298.15 K, x1 = 0.5993	790.58	1348.6	–
298.15 K, x1 = 0.7001	797.13	1358.8	–
298.15 K, x1 = 0.8005	803.42	1368.8	–
298.15 K, x1 = 0.8991	809.36	1378.5	–
298.15 K, x1 = 1	815.16	1387.7	–
303.15 K, x1 = 0.1003	749.96	1271.8	1.43
303.15 K, x1 = 0.2194	759.57	1286.4	1.65
303.15 K, x1 = 0.3002	765.8	1296	1.79
303.15 K, x1 = 0.4004	773.24	1308.1	2.02
303.15 K, x1 = 0.4999	780.31	1319.1	2.27
303.15 K, x1 = 0.5993	787.1	1329.7	2.55
303.15 K, x1 = 0.7001	793.68	1340.2	2.88
303.15 K, x1 = 0.8005	799.99	1350.4	3.23
303.15 K, x1 = 0.8991	805.95	1360.1	3.63
303.15 K, x1 = 1	811.78	1369.1	4.09
313.15 K, x1 = 0.1003	742.75	1234.1	1.21
313.15 K, x1 = 0.2194	752.43	1248.9	1.39
313.15 K, x1 = 0.3002	758.71	1258.7	1.49
313.15 K, x1 = 0.4004	766.19	1271	1.67
313.15 K, x1 = 0.4999	773.32	1282.2	1.87
313.15 K, x1 = 0.5993	780.16	1292	2.08
313.15 K, x1 = 0.7001	786.78	1303.7	2.33
313.15 K, x1 = 0.8005	793.13	1313.9	2.6
313.15 K, x1 = 0.8991	799.14	1323.7	2.89
313.15 K, x1 = 1	805.02	1332.8	3.23
323.15 K, x1 = 0.1003	735.51	1197.2	1.04
323.15 K, x1 = 0.2194	745.28	1212.3	1.19
323.15 K, x1 = 0.3002	751.59	1222.1	1.29
323.15 K, x1 = 0.4004	759.13	1234.7	1.41
323.15 K, x1 = 0.4999	766.31	1246	1.56
323.15 K, x1 = 0.5993	773.2	1257	1.73
323.15 K, x1 = 0.7001	779.88	1267.7	1.92
323.15 K, x1 = 0.8005	786.28	1278.1	2.13
323.15 K, x1 = 0.8991	792.33	1288	2.35
323.15 K, x1 = 1	798.26	1297.2	2.6
333.15 K, x1 = 0.1003	728.24	1161.3	0.904
333.15 K, x1 = 0.2194	738.08	1176.5	1.02
333.15 K, x1 = 0.3002	744.46	1186.5	1.11
333.15 K, x1 = 0.4004	752.05	1199.1	1.2
333.15 K, x1 = 0.4999	759.29	1210.6	1.32
333.15 K, x1 = 0.5993	766.23	1221.8	1.46
333.15 K, x1 = 0.7001	772.96	1232.7	1.61
333.15 K, x1 = 0.8005	779.42	1243.2	1.78
333.15 K, x1 = 0.8991	785.51	1253.2	1.95
333.15 K, x1 = 1	791.49	1262.7	2.15
